Assay results: ChEMBL document CHEMBL5230088 (Eur J Med Chem, 2020)

Key:
[1] = Cytotoxicity against African green monkey Vero E6 cells; assay type: toxicity, cell-based, Vero C1008; conditions: chlorocebus sabaeus
[2] = Prodrug conversion in rhesus monkey plasma assessed as NTP formation at 10 mg/kg; assay type: ADME, organism-based, Macaca mulatta; conditions: in vivo
Lassa virus = assay: Antiviral activity against Lassa virus assessed as inhibition of viral replication; assay type: functional, organism-based; conditions: Mammarenavirus lassaense
Junin virus = assay: Antiviral activity against Argentinian mammarenavirus assessed as inhibition of viral replication; assay type: functional, organism-based; conditions: Mammarenavirus juninense
Nipah virus [3] = assay: Antiviral activity against NiV by virus titre reduction assay; assay type: functional, organism-based; conditions: Henipavirus nipahense
SARS-CoV-2 = assay: Antiviral activity against SARS-CoV-2 infected in HAE cells assessed as reduction in viral infection; assay type: functional, organism-based; conditions: Severe acute respiratory syndrome coronavirus 2, HAE
Ebolavirus [4] = assay: Antiviral activity against EBOV infected in human HeLa cells assessed as reduction in viral replication; assay type: functional, organism-based; conditions: Orthoebolavirus
Ebolavirus [5] = assay: Antiviral activity against EBOV infected in HFF assessed as reduction in viral replication; assay type: functional, organism-based; conditions: Orthoebolavirus
Ebolavirus [6] = assay: Antiviral activity against EBOV infected in human Huh-7 cells assessed as reduction in viral replication; assay type: functional, organism-based; conditions: Orthoebolavirus
Ebolavirus [7] = assay: Antiviral activity against EBOV infected in human endothelial cells assessed as reduction in viral replication; assay type: functional, organism-based; conditions: Orthoebolavirus
Nipah virus [8] = assay: Antiviral activity against NiV by reporter assay; assay type: functional, organism-based; conditions: Henipavirus nipahense
[9] = tested on: Middle East respiratory syndrome-related coronavirus; assay: Antiviral activity against MERS-CoV infected in HLE cells assessed as inhibition of viral replication; assay type: functional, organism-based
[10] = tested on: Respiratory syncytial virus; assay: Antiviral activity against RSV; assay type: functional, organism-based; conditions: human respiratory syncytial virus
[11] = Cytotoxicity against human Huh-7 cells by celltiter-glo Assay; assay type: toxicity, cell-based
Nipah virus [12] = assay: Antiviral activity against NiV by antigen reduction assay; assay type: functional, organism-based; conditions: Henipavirus nipahense
[13] = tested on: Middle East respiratory syndrome-related coronavirus; assay: Antiviral activity against MERS-CoV infected in HAE cells; assay type: functional, organism-based
Ebolavirus [14] = assay: Antiviral activity against EBOV infected in rhesus monkey model assessed as protection against viral infection at 10 mg/kg, iv administered once daily fir 12 days relative to control; assay type: functional; conditions: time 12 day
Human coronavirus OC43 = assay: Antiviral activity against HCoV-OC43; assay type: functional, organism-based; conditions: Betacoronavirus 1
[15] = Prodrug conversion in mouse lungs assessed as NTP formation at 10 mg/kg; assay type: ADME, organism-based, Lung; conditions: in vivo
Nipah virus [16] = assay: Antiviral activity against NiV by cytopathic effect assay; assay type: functional, organism-based; conditions: Henipavirus nipahense
[17] = Antiviral activity against Porcine delta coronavirus assessed as reduction in viral replication; assay type: functional, Porcine deltacoronavirus
[18] = Cytotoxicity against mouse Astrocytoma delayed brain tumor (DBT) cells; assay type: toxicity, cell-based, Astrocytoma delayed brain tumor (DBT) cell
Murine hepatitis virus = assay: Antiviral activity against MHV infected in mouse Astrocytoma delayed brain tumor (DBT) cells; assay type: functional, organism-based; conditions: Murine coronavirus, Astrocytoma delayed brain tumor (DBT) cell
Ebolavirus [19] = assay: Antiviral activity against EBOV infected in human primary macrophage cells assessed as reduction in viral replication; assay type: functional, organism-based; conditions: Orthoebolavirus

Structure (SMILES): CCC(CC)COC(=O)[C@H](C)N[P@](=O)(OC[C@H]1O[C@@](C#N)(c2ccc3c(N)ncnn23)[C@H](O)[C@@H]1O)Oc1ccccc1
- CC50 [1]: > 100 µM
- Drug metabolism [2]: 30 µmol/L
- EC50 (Lassa virus): 1.48 µM
- EC90 (Lassa virus): 2.8 µM
- EC50 (Junin virus): 0.47 µM
- EC90 (Junin virus): 1.33 µM
- EC50 (Nipah virus [3]): 0.029 µM
- EC50 (SARS-CoV-2): 0.069 µM
- EC50 (Ebolavirus [4]): 0.06 µM
- EC50 (Ebolavirus [5]): 0.06 µM
- EC50 (Ebolavirus [6]): 0.06 µM
- EC50 (Ebolavirus [7]): 0.06 µM
- EC50 (Nipah virus [8]): 0.029 µM
- IC50 [9]: 0.025 µM
- EC50 [10]: 0.019 µM
- EC90 [10]: 0.051 µM
- CC50 [11]: > 10 µM
- EC50 (Nipah virus [12]): 0.029 µM
- EC50 [13]: 0.074 µM
- Activity (Ebolavirus [14]): 100%
- EC50 (Human coronavirus OC43): 0.15 µM
- Drug metabolism [15]: 2 µmol/L
- EC50 (Nipah virus [16]): 0.029 µM
- EC50 [17]: 0.02 µM
- CC50 [18]: 39 µM
- EC50 (Murine hepatitis virus): 0.03 µM
- EC50 (Ebolavirus [19]): 0.06 µM
